{"source": "patent US11446352B2", "about": "“Compositions and methods for inhibiting tumor-induced immune suppression” (priority 2017, dated 2022)", "key": {"AT3 cells": {"test_system": "AT3 cells", "assay": "MTT cell proliferation assay", "assay_type": "cell-based, murine", "settings": "AT3, in vitro, 72 h", "description": "(§1) FIGS. 2I-2K show FACS analysis of Hsp90β expression on the cell surface of E0771 cells treated with DMSO or EnnA. FIGS. 2L-2N show FACS analysis of the ratio of Hsp90α to Hsp90β expression on the cell surface of E0771 cells treated with DMSO or EnnA. FIGS. 2O-2Q show FACS analysis of Hsp90α expression on the cell surface of E0771 cells treated with DMSO or EnnA. FIG. 2R is a bar graph showing expression of Hsp90β on the surface of AT3 cells treated with DMSO or EnnA. FIG. 2S is a bar graph showing expression of Hsp90α on the surface of AT3 cells treated with DMSO or EnnA. FIGS. 2T-2X show FACS analysis of Hsp90β expression on the surface of E0771 tumor cells treated with mIgG, DMSO, or EnnA.\n(§2) The mechanism of action of EnnA appears to be different from that of 17-AAG. […] Further studies studies using murine breast cancer cells lines have shown that EnnA kills E0771, AT3, EMT6 and 4T1 in vitro (FIG. 2A-2D)."}, "EMT6 cells": {"test_system": "EMT6 cells", "assay": "MTT cell proliferation assay", "assay_type": "cell-based, murine", "settings": "EMT6, in vitro, 72 h", "description": "as §1, §2"}, "E0771 cells [1]": {"test_system": "E0771 cells", "assay": "MTT cell proliferation assay", "assay_type": "cell-based, murine", "settings": "E0771, in vitro, 72 h", "description": "as §1, §2"}, "4T1 cells": {"test_system": "4T1 cells", "assay": "MTT cell proliferation assay", "assay_type": "cell-based, murine", "settings": "4T1, in vitro, 72 h", "description": "as §1, §2"}, "E0771 tumors": {"test_system": "E0771 tumors", "assay": "re-challenge of cured mice with E0771 cells (immune memory)", "assay_type": "in vivo", "settings": "EnnA/CPA-treated group re-challenged with 50,000 E0771 cells; tumors completely eliminated 10 days later", "description": "FIG. 6A is a line graph of tumor volume (mm^3) versus days post implantation. FIG. 6B-6E are images of three representative mice from each indicated group at the end of the treatment. FIGS. 6F-6I are a panel of images of mice from the CPA+EnnA group monitored for tumor recurrence for two more months (3 months post implantation). No tumor recurrence was observed. They were re-challenged with 50,000 E0771 cells implanted in the opposite fat pad. Five Naïve mice were used as controls. Upper panels and lower show luciferase luminescence images of mice bearing tumors at 7 and 17 days after the second implantation, respectively.\nThe anti-tumor activity of EnnA involves both cytotoxicity and clearance by T cells. […] Indeed, EnnA/CPA-treated mice remained tumor-free for 2 months after the end of EnnA treatment. To test whether the cured mice developed immune memory, […] 50,000 E0771 tumor cells."}, "[2]": {"test_system": "Hs578T triple-negative cell line", "assay": "cell survival of breast cancer cell line upon treatment with EnnA", "assay_type": "cell-based, human", "settings": "48 and 72 h", "description": "(§3) The first bar indicates 100% folding activity of RRL without inhibitor. PR22 indicates the antibody without PR but with RRL and EnnA. PR represents the antibody (PR22) with PR but without RRL. All other samples have PR22, PR, and RRL without (first bar) or with increased concentration of EnnA. FIGS. 1C-1E are line graphs of cell survival versus EnnA concentration (μM) in breast cancer cell lines Hs578T (FIG. 1C), […] (FIG. 1D) and MDA-MB231 (FIG. 1E) upon treatment with EnnA for 48 and 72 h. […] PR alone (PR), antibody (PR22)+RRL, PR+RRL without inhibitor (RRL), PR+RRL with 1 μM 17-AAG (17AAG) PR+RRL with 10 μM BEAU or EnnA. FIGS. 1G-1I are autoradiographs of Western blots of cytosols from various cell lines treated with 17-AAG (1 μM) or EnnA (3 μM) with antibodies against the specified proteins. FIG. 1J is an autoradiograph showing EnnA causes autophagy in Hs578T and MDA-MB453 cell lines. FIGS. 1K-1N are electron microscopy micrographs showing autophagosomes and reduced mitochondria content in Hs578T cells treated with DMSO or EnnA. FIGS. 1O-1P are fluorescence micrographs showing EnnA causing reduced mitochondria content in Hs578T cells. FIGS. 1Q-1BB are fluorescence micrographs showing mitophagy in Hsp578T cells treated with EnnA as indicated by colocalization of the mitochondria marker Cox4 and the autophagy marker LC3BII."}, "MDA-MB-231 cell line": {"test_system": "MDA-MB-231 cell line", "assay": "cell survival of breast cancer cell line upon treatment with EnnA", "assay_type": "cell-based, human", "settings": "MDA-MB-231, 48 and 72 h", "description": "as §3"}, "[3]": {"test_system": "HER2+ MAD-MB-453 cell line", "assay": "cell survival of breast cancer cell line upon treatment with EnnA", "assay_type": "cell-based, human", "settings": "MAD-MB-453, 48 and 72 h", "description": "as §3"}, "[4]": {"test_system": "Hsp90 client proteins, Hsp70, Hsp27", "assay": "Western blots of cytosols from cell lines treated with 17-AAG or EnnA", "assay_type": "cell-based, human", "description": "as §3"}, "E0771 cells [5]": {"test_system": "E0771 cells", "assay": "Western blot of control and EnnA-treated cells", "assay_type": "cell-based, murine", "procedure": "FIG. 3A-3B are autoradiographs of a Western blot showing expression of the indicated proteins in control (left lane) and 0.5 μM EnnA-treated (right lane) E0771 (FIG. 3A) and AT3 (FIG. 3B) cells. FIG. 3C is a graph showing FACS analysis of PD-L1 level in AT3 cells. FIGS. 3D-3K are graphs showing qPCR analysis of the mRNA level of cytokines TNFa (FIG. 3D), IL-6 (FIG. 3E), TGFb1 (FIG. 3F) and IL-10 (FIG. 3G), the chemokines S100a9 (FIG. 3J) and CCL3 (FIG. 3K), as well as PDL1 (FIG. 3H) and IDO (FIG. 3I). FIGS. 3L-3Q are micrographs of HEK293 cells transiently transfected with GFP-IDO fusion protein expressing or GFP alone plasmids for 24 h. Cells were then treated with 5 μM EnnA for 6 h and analyzed for green fluorescence and bright light. FIG. 3R is a line graph of μg/ml of tryptophan and its IDO-mediated product kynurenine using the previously reported HPLC-based assay."}}}
{"smiles": "CC[C@H](C)[C@H]1C(=O)O[C@H](C(C)C)C(=O)N(C)[C@@H]([C@@H](C)CC)C(=O)O[C@H](C(C)C)C(=O)N(C)[C@@H]([C@@H](C)CC)C(=O)O[C@H](C(C)C)C(=O)N1C", "note": "[EnnA, Enniatin A]", "values": [{"measurement": "IC50", "setting": "AT3 cells", "value": "5 to 10", "unit": "µM"}, {"measurement": "IC50", "setting": "EMT6 cells", "value": "~2.5", "unit": "µM"}, {"measurement": "IC50", "setting": "E0771 cells [1]", "value": "5 to 10", "unit": "µM"}, {"measurement": "IC50", "setting": "4T1 cells", "value": "~2.5", "unit": "µM"}, {"measurement": "mice showing small tumors seven days after the second implantation", "setting": "E0771 tumors", "value": "two of the seven"}, {"measurement": "cytotoxicity", "setting": "[2]", "value": "potent and concentration-dependent cytotoxicity"}, {"measurement": "cytotoxicity", "setting": "MDA-MB-231 cell line", "value": "potent and concentration-dependent cytotoxicity"}, {"measurement": "cytotoxicity", "setting": "[3]", "value": "potent and concentration-dependent cytotoxicity"}, {"measurement": "stability of Hsp90 client proteins", "setting": "[4]; EnnA 3 μM", "value": "destabilization"}, {"measurement": "induction of Hsp27", "setting": "[4]; MAD-MB-453 cells", "value": "slightly induced"}, {"measurement": "overexpression of Hsp70", "setting": "[4]; all cell lines tested, EnnA 3 μM", "value": "does not induce overexpression"}, {"measurement": "IDO protein level", "setting": "E0771 cells [5]; E0771 (FIG. 3A), 0.5 μM EnnA", "value": "severely reduced"}, {"measurement": "Hsp70 protein", "setting": "E0771 cells [5]; E0771, 0.5 μM EnnA", "value": "slightly increased"}, {"measurement": "pAKT protein", "setting": "E0771 cells [5]; E0771, 0.5 μM EnnA", "value": "destabilizes"}, {"measurement": "protein expression of Hsp40", "setting": "E0771 cells [5]; E0771, 0.5 μM EnnA", "value": "reduces"}]}
